The target in one test is Cbl-b (Homo sapiens, UniProt Q13191). Description: Cbl-b activity assay (Cbl-b inhibition assay), TR-FRET of Cbl-b interaction with UbcH5B-Ub. Format: biochemical. The conditions noted are these: * assay buffer containing 50 mM NaCl instead of 100 mM NaCl and 30 nM Src kinase instead of 60 nM; read-out: Cbl-b activity IC50 (μM)*. The method, then: The ability of candidate compounds to inhibit Cbl-b activity was measured by monitoring the interaction of Cbl-b with UbcH5B-Ub in the presence of the candidate compound.
Chain of Cbl-b (Q13191 36-427): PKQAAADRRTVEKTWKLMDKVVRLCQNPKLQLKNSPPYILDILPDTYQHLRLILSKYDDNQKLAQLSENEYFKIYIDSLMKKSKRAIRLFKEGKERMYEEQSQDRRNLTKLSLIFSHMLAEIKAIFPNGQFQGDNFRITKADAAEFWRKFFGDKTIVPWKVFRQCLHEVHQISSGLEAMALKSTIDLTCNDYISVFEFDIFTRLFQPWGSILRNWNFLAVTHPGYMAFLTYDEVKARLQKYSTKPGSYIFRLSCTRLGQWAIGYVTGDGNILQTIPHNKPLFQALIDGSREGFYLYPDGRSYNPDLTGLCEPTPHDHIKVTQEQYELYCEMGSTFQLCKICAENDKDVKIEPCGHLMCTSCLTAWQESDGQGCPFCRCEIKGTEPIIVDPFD
Fluorescently labeled UbcH5B-Ub was prepared by conjugating ubiquitin (Ub), labeled at its N-terminus with Bodipy-Fluorescein, to UbcH5B, an E2 enzyme, harboring a cysteine to lysine mutation at position 85. […] After incubation in the presence of the candidate compound, the plate was incubated for an additional 1.5 hours in the presence of 60 nM Src kinase with 1 mM ATP and 5 mM MgCl2 (final concentrations). […] The plate was incubated for 1 hour.
Column marked with an asterisk (*) were tested as described above with assay buffer containing 50 mM NaCl instead of 100 mM NaCl and 30 nM Src kinase instead of 60 nM Src kinase. The resulting data for the Cbl-b binding assay was solvent corrected and double referenced prior to analysis. All data were globally fit to a steady-state affinity and kinetic binding model where applicable). Fit parameters were derived from a 1:1 binding model using the Biacore T200 Evaluation Software V2.0 (GE Healthcare) (Table 2).
Turning to `Cc1ccc2cc(C(=O)Nc3cccc(C(C)Sc4nncn4C)c3)cnc2c1` (centres unmarked) [Compound 15, 7-Methyl-N-(3-(1-(4-methyl-4H-1,2,4-triazol-3-ylthio)ethyl)phenyl)quinoline-3-carboxamide], the IC50 (usually the midpoint of a concentration-inhibition curve) is more than 10 µM. Still for that read-out and setting: as for `CC(Sc1nncn1C)c1cccc(NC(=O)c2ccc3ccc(Cl)cc3n2)c1` (centres unmarked) [Compound 16, 7-Chloro-N-(3-(1-((4-methyl-4H-1,2,4-triazol-3-yl)thio)ethyl)phenyl)quinoline-2-carboxamide], the figure is 3 to 10 µM; as for `CC(Sc1nncn1C)c1cccc(NC(=O)c2ccc3cccnc3n2)c1` (centres unmarked) [Compound 18, N-(3-(1-((4-Methyl-4H-1,2,4-triazol-3-yl)thio)ethyl)phenyl)-1,8-naphthyridine-2-carboxamide], 3 to 10 µM. Still for that read-out and setting: as for `CC(Sc1nncn1C)c1cccc(NC(=O)c2cc3ccncc3cn2)c1` (centres unmarked) [Compound 19, N-(3-(1-((4-Methyl-4H-1,2,4-triazol-3-yl)thio)ethyl)phenyl)-2,7-naphthyridine-3-carboxamide], the figure is 3 to 10 µM. For `CC(Sc1nncn1C)c1cccc(NC(=O)c2ccc3ncccc3n2)c1` (centres unmarked) [Compound 20, N-(3-(1-((4-Methyl-4H-1,2,4-triazol-3-yl)thio)ethyl)phenyl)-1,5-naphthyridine-2-carboxamide], the IC50 lay in the range of 3 to 10 µM. On the same count and under the same terms, as for `Cc1ccc2ccc(C(=O)Nc3cccc(C(C)Sc4nncn4C)c3)nc2n1` (centres unmarked) [Compound 21, 7-Methyl-N-(3-(1-((4-methyl-4H-1,2,4-triazol-3-yl)thio)ethyl)phenyl)-1,8-naphthyridine-2-carboxamide], the figure is more than 10 µM; as for `CC(Sc1nncn1C)c1cccc(NC(=O)c2cc3ccccc3c(=O)[nH]2)c1` (centres unmarked) [Compound 22, N-(3-(1-((4-Methyl-4H-1,2,4-triazol-3-yl)thio)ethyl)phenyl)-1-oxo-1,2-dihydroisoquinoline-3-carboxamide], more than 10 µM. As for `CC(Sc1nncn1C)c1cccc(NC(=O)c2cc3c(cn2)CCCC3)c1` (centres unmarked) [Compound 24, N-(3-(1-((4-Methyl-4H-1,2,4-triazol-3-yl)thio)ethyl)phenyl)-5,6,7,8-tetrahydroisoquinoline-3-carboxamide], the IC50 was in the range of 3 to 10 µM. On to `CC(Sc1nncn1C)c1cccc(NC(=O)c2cc3ccc(Cl)cc3cn2)c1` (centres unmarked) [Compound 25, 7-Chloro-N-(3-(1-((4-methyl-4H-1,2,4-triazol-3-yl)thio)ethyl)phenyl)isoquinoline-3-carboxamide], for which the IC50 is 1 to 3 µM.

Consider `Cc1ccc(C(=O)Nc2cccc([C@H](C)Sc3nncn3C)c2)cc1C` [Compound 27, (S)-3,4-Dimethyl-N-(3-(1-((4-methyl-4H-1,2,4-triazol-3-yl)thio)ethyl)phenyl)benzamide], for which the half-inhibitory concentration (IC50) lay in the range of 3 to 10 µM. For `Cc1cc(C(=O)Nc2cccc([C@H](C)Sc3nncn3C)c2)ccc1Cl` [Compound 28, (S)-4-Chloro-3-methyl-N-(3-(1-((4-methyl-4H-1,2,4-triazol-3-yl)thio)ethyl)phenyl)benzamide], the IC50 was in the range of 1 to 3 µM. With `Cc1cnc(C(=O)Nc2cccc([C@H](C)Sc3nncn3C)c2)cc1C` [Compound 36, (S)-4,5-Dimethyl-N-(3-(1-((4-methyl-4H-1,2,4-triazol-3-yl)thio)ethyl)phenyl)picolinamide], the IC50 lay in the range of 1 to 3 µM.

`CC(C)c1ccnc(C(=O)Nc2cccc([C@H](C)Sc3nncn3C)c2)c1` [Compound 37, (S)-4-Isopropyl-N-(3-(1-((4-methyl-4H-1,2,4-triazol-3-yl)thio)ethyl)phenyl)picolinamide]: the IC50 is 3 to 10 µM.

As for `CC(Sc1nccn1C)c1cccc(NC(=O)c2cc3ccccc3cn2)c1` (centres unmarked) [Compound 100, N-[3-[1-(1-methylimidazol-2-yl)sulfanylethyl]phenyl]isoquinoline-3-carboxamide], the IC50 was in the range of 3 to 10 µM. Regarding `CC(Sc1nccn1C)c1ccc(F)c(NC(=O)c2cccc(C(F)(F)F)n2)c1` (centres unmarked) [Compound 101, N-[2-fluoro-5-[1-(1-methylimidazol-2-yl)sulfanylethyl]phenyl]-6-(trifluoro-methyl)pyridine-2-carboxamide], the IC50 was in the range of 3 to 10 µM.

`C[C@@H](Sc1nncn1C)c1ccnc(NC(=O)c2cccc(C(F)(F)F)n2)c1` [Compound 102a, (R)-N-(4-(1-((4-methyl-4H-1,2,4-triazol-3-yl)thio)ethyl)pyridin-2-yl)-6-(trifluoromethyl)picolinamide]: the IC50 was 3 to 10 µM. The same measure, in the same setting: as for `CC(Sc1nncn1C)c1cc(CO)cc(NC(=O)c2ccc3ccccc3n2)c1` (centres unmarked) [Compound 132, N-(3-(hydroxymethyl)-5-(1-(4-methyl-4H-1,2,4-triazol-3-ylthio)ethyl)phenyl)quinoline-2-carboxamide], the figure is more than 10 µM; as for `CC(Sc1nncn1C)c1cccc(N2Cc3ccccc3C2=O)c1` (centres unmarked) [Compound 162, 2-[3-[1-[(4-methyl-1,2,4-triazol-3-yl)sulfanyl]ethyl]phenyl]isoindolin-1-one], 3 to 10 µM. Same read-out and setting: as for `CC(Sc1nncn1C)c1cccc(N2Cc3c(cccc3C(F)(F)F)C2=O)c1` (centres unmarked) [Compound 166, 2-(3-(1-((4-methyl-4H-1,2,4-triazol-3-yl)thio)ethyl)phenyl)-4-(trifluoromethyl)isoindolin-1-one], the figure is 0.301 to 1 µM.

Take `CC(Sc1nncn1C)c1ccnc(N2Cc3ccccc3C2=O)c1` (centres unmarked) [Compound 171, 2-(4-(1-((4-methyl-4H-1,2,4-triazol-3-yl)thio)ethyl)pyridin-2-yl)isoindolin-1-one]: the IC50 was in the range of 3 to 10 µM.

The same test, now with this note: assay buffer with 100 mM NaCl, 60 nM Src kinase; read-out: Cbl-b activity IC50.
In the case of `Cn1cnnc1C(F)[C@@](C)(F)c1cccc(N2Cc3c(cccc3C(F)(F)F)C2=O)c1` (stereo in doubt) [Compound 478b, 2-(3-((1R,2S)-1,2-difluoro-1-(4-methyl-4H-1,2,4-triazol-3-yl)propan-2-yl)phenyl)-4-(trifluoromethyl)isoindolin-1-one], the IC50 lay within 1 to 3 µM. Take `C[C@@H](Sc1nncn1C)c1ccc(F)c(N2Cc3c(cccc3C(F)(F)F)C2=O)c1` [Compound 170, 2-[2-Fluoro-5-[(1R)-1-[(4-methyl-1,2,4-triazol-3-yl)sulfanyl]ethyl]phenyl]-4-(trifluoromethyl)isoindolin-1-one]: the IC50 is more than 10 µM. Turning to `C[C@@H](Cc1n[nH]cc1CO)c1cccc(N2Cc3c(cccc3C(F)(F)F)C2=O)c1` [Compound 271a, (S)-2-(3-(1-(4-(hydroxymethyl)-1H-pyrazol-3-yl)propan-2-yl)phenyl)-4-(trifluoromethyl)isoindolin-1-one], the IC50 was more than 10 µM. For `Cc1[nH]cnc1C[C@@H](C)c1cccc(N2Cc3c(cccc3C(F)(F)F)C2=O)c1` [Compound 272a, 2-[3-[(2R)-1-(5-methyl-1H-imidazol-4-yl)propan-2-yl]phenyl]-4-(trifluoromethyl)isoindolin-1-one], the IC50 was in the range of 0.1 to 0.3 µM. With `Cc1cnnn1C[C@H](C)c1cccc(NC(=O)c2cccc(C(F)(F)F)n2)c1` [Compound 312b, (R)-N-(3-(1-(5-methyl-1H-1,2,3-triazol-1-yl)propan-2-yl)phenyl)-6-(trifluoromethyl)picolinamide], the IC50 was in the range of 1 to 3 µM. The same measure, in the same setting: as for `C[C@H](Cc1nncn1C)c1cc(NC2(C)COC2)nc(N2Cc3c(cccc3C(F)(F)F)C2=O)c1` [Compound 349, 2-{4-[(2R)-1-(4-methyl-4H-1,2,4-triazol-3-yl)propan-2-yl]-6-[(3-methyloxetan-3-yl)amino]pyridin-2-yl}-4-(trifluoromethyl)-2,3-dihydro-1H-isoindol-1-one], the figure is 0.301 to 1 µM; as for `Cc1conc1C[C@H](C)c1cccc(N2Cc3c(cccc3C(F)(F)F)C2=O)c1` [Compound 367b, (S)-2-(3-(1-(4-methylisoxazol-3-yl)propan-2-yl)phenyl)-4-(trifluoromethyl)isoindolin-1-one], 1 to 3 µM; as for `C[C@H](Cc1nncs1)c1cccc(N2Cc3c(cccc3C(F)(F)F)C2=O)c1` [Compound 368, (R)-2-(3-(1-(1,3,4-thiadiazol-2-yl)propan-2-yl)phenyl)-4-(trifluoromethyl)isoindolin-1-one], 0.301 to 1 µM. Still for that read-out and setting: as for `C[C@H](Cc1nncn1C)c1cccc(N2Cc3c(ccnc3C(C)(C)F)C2=O)c1` [Compound 373, 4-(2-fluoropropan-2-yl)-2-[3-[(2R)-1-(4-methyl-4H-1,2,4-triazol-3-yl)propan-2-yl]phenyl]-1H,2H,3H-pyrrolo[3,4-c]pyridin-1-one], the figure is 0.301 to 1 µM; as for `Cn1cnnc1C[C@@H](c1cccc(N2Cc3c(cccc3C(F)(F)F)C2=O)c1)C(F)(F)F` [Compound 471b, (S)-2-(3-(1,1,1-trifluoro-3-(4-methyl-4H-1,2,4-triazol-3-yl)propan-2-yl)phenyl)-4-(trifluoromethyl)isoindolin-1-one], 3 to 10 µM. The same measure, in the same setting: as for `Cn1cnnc1[C@@H](F)[C@@](C)(F)c1cccc(N2Cc3c(cc(C4CC4)cc3C(F)(F)F)C2=O)c1` [Compound 481b, 6-cyclopropyl-2-[3-[(1R,2S)-1,2-difluoro-1-(4-methyl-4H-1,2,4-triazol-3-yl)propan-2-yl]phenyl]-4-(trifluoromethyl)-2,3-dihydro-1H-isoindol-1-one], the figure is 1 to 3 µM. Turning to `CCn1cnnc1CC1(c2cccc(NC(=O)c3cc(C)nc(C4CC4)n3)c2)COC1` [Example 705, 2-cyclopropyl-N-(3-{3-[(4-ethyl-1,2,4-triazol-3-yl)methyl]oxetan-3-yl}phenyl)-6-methylpyrimidine-4-carboxamide], the IC50 lay within 3 to 10 µM.

For the origin of these results see patent publication US20220324835A1 (Nurix Therapeutics, Inc., priority 2018, published 2022).
